# Columns and labels:
# [1] = target: T1, American firefly luciferase (Photinus pyralis, UniProt P08659); assay: stopped-flow inhibition of initial light output; type: biochemical
# T1 construct: recombinant luciferase
# [2] = target: T2, Japanese firefly luciferase (Nipponoluciola cruciata, UniProt P13129); assay: [3H] photoincorporation and time-resolved photolabeling with LC-MSMS; type: binding
# T2 construct: recombinant luciferase
# T2 sequence (P13129 1-548): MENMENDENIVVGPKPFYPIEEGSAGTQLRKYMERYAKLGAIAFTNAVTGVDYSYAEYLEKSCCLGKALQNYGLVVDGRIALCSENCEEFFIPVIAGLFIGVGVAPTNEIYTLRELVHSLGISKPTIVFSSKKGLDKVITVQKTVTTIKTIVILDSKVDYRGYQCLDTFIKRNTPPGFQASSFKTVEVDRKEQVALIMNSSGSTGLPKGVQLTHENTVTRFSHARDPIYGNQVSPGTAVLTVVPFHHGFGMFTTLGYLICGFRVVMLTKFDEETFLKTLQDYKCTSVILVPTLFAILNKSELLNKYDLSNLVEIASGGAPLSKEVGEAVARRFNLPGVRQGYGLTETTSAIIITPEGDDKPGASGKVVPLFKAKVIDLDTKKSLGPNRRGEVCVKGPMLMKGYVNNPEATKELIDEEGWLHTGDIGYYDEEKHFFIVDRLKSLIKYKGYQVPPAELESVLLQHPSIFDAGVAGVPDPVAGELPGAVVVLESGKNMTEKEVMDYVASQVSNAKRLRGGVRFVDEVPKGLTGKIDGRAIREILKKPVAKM
# [3] = target: T1, American firefly luciferase; assay: stopped-flow inhibition of initial ATP-induced light output; photolabeling with LC-MSMS also done; type: biochemical
# [4] = target: T1, American firefly luciferase; assay: equilibrium photolabeling with LC-MSMS; type: binding
# T1 sequence (P08659 whole entry): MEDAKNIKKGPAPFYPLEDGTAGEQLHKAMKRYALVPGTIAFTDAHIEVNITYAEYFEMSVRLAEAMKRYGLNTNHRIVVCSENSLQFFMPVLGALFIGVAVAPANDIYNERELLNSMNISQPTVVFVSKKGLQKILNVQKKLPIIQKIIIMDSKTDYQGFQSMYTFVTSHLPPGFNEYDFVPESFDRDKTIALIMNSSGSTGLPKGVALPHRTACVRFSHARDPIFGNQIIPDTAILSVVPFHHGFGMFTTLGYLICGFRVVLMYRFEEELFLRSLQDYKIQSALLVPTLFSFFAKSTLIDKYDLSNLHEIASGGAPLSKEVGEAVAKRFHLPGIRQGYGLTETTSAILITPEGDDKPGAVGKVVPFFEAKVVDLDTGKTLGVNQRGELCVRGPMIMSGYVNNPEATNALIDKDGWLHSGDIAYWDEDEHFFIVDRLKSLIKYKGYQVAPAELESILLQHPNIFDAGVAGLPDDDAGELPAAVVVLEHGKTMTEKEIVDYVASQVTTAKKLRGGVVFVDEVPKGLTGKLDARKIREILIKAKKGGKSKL
compound,measurement,setting,value
CCCCCCCCO [1-octanol],IC50,[1],~ 225 µM
"CCCCCC1(CCO)N=N1 [3-azioctanol, 3-(2-hydroxyethyl)-3-n-pentyldiazirine]",Kd,[2],> 1000 µM
same,IC50,[3],200 ± 46 µM
CC1(CCCCCCO)N=N1 [7-azioctanol],equilibrium photolabeling with LC-MSMS,[4],"photolabeled the American firefly luciferase at equilibrium with the azialkanols, and found the labeling pattern to be identical"
